Results: patent US8435980B2 (AbbVie Inc., priority 2009, dated 2013)

Target: T1, Cdc7 (BEV coexpressed huCDC7/DBF4) (Homo sapiens, UniProt O00311)
T1 construct: made in house; host or cells: BEV (baculovirus expression vector) co-expression; insect cells are implied but no cell line is named
Test: Cdc7 enzyme inhibition assay ([33P]ATP, biotinylated peptide substrate, FlashPlate)
Type: biochemical
Settings: Table 3; enzyme inhibition data (Ki)
Protocol: Cdc7 (BEV coexpressed huCDC7/DBF4) is prepared internally. Cdc7 assays are conducted as follows with final concentrations as listed. […] Reactions are quenched after 1 hr by the addition of 90 μL stop buffer (50 mM EDTA, 2M NaCl). […] (Ki) for exemplary compounds.

T1 sequence (O00311 whole entry): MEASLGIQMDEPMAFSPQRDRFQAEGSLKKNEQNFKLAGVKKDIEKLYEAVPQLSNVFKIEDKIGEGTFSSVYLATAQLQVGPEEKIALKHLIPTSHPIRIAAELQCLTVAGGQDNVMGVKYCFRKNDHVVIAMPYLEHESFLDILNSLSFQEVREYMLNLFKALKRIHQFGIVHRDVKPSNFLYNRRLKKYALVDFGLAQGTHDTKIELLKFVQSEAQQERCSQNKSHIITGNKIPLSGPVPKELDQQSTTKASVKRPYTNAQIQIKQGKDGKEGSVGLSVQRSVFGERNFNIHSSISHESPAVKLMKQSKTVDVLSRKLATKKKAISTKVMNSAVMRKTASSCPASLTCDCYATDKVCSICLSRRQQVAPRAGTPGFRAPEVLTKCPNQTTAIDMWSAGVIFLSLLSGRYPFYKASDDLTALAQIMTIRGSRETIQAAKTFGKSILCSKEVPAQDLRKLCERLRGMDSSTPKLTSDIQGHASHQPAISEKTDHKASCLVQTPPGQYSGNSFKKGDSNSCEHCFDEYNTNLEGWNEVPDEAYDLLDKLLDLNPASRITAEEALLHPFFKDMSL
T1 sequence (Q9UBU7 whole entry partner): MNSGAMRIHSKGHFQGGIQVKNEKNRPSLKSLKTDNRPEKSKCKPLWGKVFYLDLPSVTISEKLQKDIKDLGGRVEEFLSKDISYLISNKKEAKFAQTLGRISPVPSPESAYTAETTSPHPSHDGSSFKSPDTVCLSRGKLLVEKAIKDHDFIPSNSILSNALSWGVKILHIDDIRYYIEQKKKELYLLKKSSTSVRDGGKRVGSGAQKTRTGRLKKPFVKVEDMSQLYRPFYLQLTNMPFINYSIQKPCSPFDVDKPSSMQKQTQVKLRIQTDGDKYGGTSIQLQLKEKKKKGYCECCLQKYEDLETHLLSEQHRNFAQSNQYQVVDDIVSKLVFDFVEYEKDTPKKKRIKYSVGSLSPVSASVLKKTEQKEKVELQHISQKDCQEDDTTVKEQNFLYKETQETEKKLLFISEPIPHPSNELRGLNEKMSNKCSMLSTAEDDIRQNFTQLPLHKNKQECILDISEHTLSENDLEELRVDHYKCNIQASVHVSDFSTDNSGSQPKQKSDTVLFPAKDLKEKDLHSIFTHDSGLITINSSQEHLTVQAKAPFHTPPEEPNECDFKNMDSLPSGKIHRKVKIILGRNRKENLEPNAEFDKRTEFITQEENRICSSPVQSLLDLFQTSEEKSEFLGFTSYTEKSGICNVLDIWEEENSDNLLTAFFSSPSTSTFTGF

Compound	Ki
O=C(N[C@H]1CC[C@H](Nc2cc(-c3c[nH]c4ncccc34)cc(Cl)n2)CC1)C1CN(Cc2cccc(C(F)(F)F)c2)C1 [Example 394, N-(trans-4-{[6-chloro-4-(1H-pyrrolo[2,3-b]pyridin-3-yl)pyridin-2-yl]amino}cyclohexyl)-1-[3-(trifluoromethyl)benzyl]azetidine-3-carboxamide]	< 10 nM
O=C(N[C@H]1CC[C@H](Nc2cc(-c3c[nH]c4ncccc34)cc(Cl)n2)CC1)C1CN(Cc2ccc(Cl)cc2Cl)C1 [Example 395, N-(trans-4-{[6-chloro-4-(1H-pyrrolo[2,3-b]pyridin-3-yl)pyridin-2-yl]amino}cyclohexyl)-1-(2,4-dichlorobenzyl)azetidine-3-carboxamide]	< 10 nM
Cc1cccc(CN2CC(C(=O)N[C@H]3CC[C@H](Nc4cc(-c5c[nH]c6ncccc56)cc(Cl)n4)CC3)C2)c1C [Example 406, N-(trans-4-{[6-chloro-4-(1H-pyrrolo[2,3-b]pyridin-3-yl)pyridin-2-yl]amino}cyclohexyl)-1-(2,3-dimethylbenzyl)azetidine-3-carboxamide]	< 10 nM
O=C(N[C@H]1CC[C@H](Nc2cc(-c3c[nH]c4ncccc34)cc(Cl)n2)CC1)C1CN(Cc2ccc3cc[nH]c3c2)C1 [Example 407, N-(trans-4-{[6-chloro-4-(1H-pyrrolo[2,3-b]pyridin-3-yl)pyridin-2-yl]amino}cyclohexyl)-1-(1H-indol-6-ylmethyl)azetidine-3-carboxamide]	< 10 nM
COc1cc(Nc2cc(-c3c[nH]c4ncccc34)cc(Cl)n2)cc(OC)c1OC [Example 412, 6-chloro-4-(1H-pyrrolo[2,3-b]pyridin-3-yl)-N-(3,4,5-trimethoxyphenyl)pyridin-2-amine]	< 10 nM
Clc1cc(-c2c[nH]c3ncccc23)cc(Nc2ccc(-n3ccnc3)cc2)n1 [Example 413, 6-chloro-N-[4-(1H-imidazol-1-yl)phenyl]-4-(1H-pyrrolo[2,3-b]pyridin-3-yl)pyridin-2-amine]	< 10 nM
COc1ccc(CNc2cc(-c3c[nH]c4ncccc34)cc(Cl)n2)cc1OC [Example 414]	< 10 nM
Clc1cc(-c2c[nH]c3ncccc23)cc(Nc2ccc(N3CCCCC3)cc2)n1 [Example 420, 6-chloro-N-[4-(piperidin-1-yl)phenyl]-4-(1H-pyrrolo[2,3-b]pyridin-3-yl)pyridin-2-amine]	< 10 nM
COC(=O)c1cnc2[nH]cc(-c3cc(Cl)nc(NC4CCCCC4)c3)c2c1 [Example 421, methyl 3-[2-chloro-6-(cyclohexylamino)pyridin-4-yl]-1H-pyrrolo[2,3-b]pyridine-5-carboxylate]	< 10 nM
O=C(CN1CCN(CCO)CC1)N[C@H]1CC[C@H](Nc2cc(-c3c[nH]c4ncccc34)cc(Cl)n2)CC1 [Example 422, N-(trans-4-{[6-chloro-4-(1H-pyrrolo[2,3-b]pyridin-3-yl)pyridin-2-yl]amino}cyclohexyl)-2-[4-(2-hydroxyethyl)piperazin-1-yl]acetamide]	< 10 nM
Cc1cccc(C)c1N1CCN(CC(=O)N[C@H]2CC[C@H](Nc3cc(-c4c[nH]c5ncccc45)cc(Cl)n3)CC2)CC1 [Example 423, N-(trans-4-{[6-chloro-4-(1H-pyrrolo[2,3-b]pyridin-3-yl)pyridin-2-yl]amino}cyclohexyl)-2-[4-(2,6-dimethylphenyl)piperazin-1-yl]acetamide]	< 10 nM
COc1cnc2[nH]cc(-c3cc(Cl)nc(NC4CCC(CC5CCC(NC6CCC6)CC5)CC4)c3)c2c1 (centres unmarked) [Example 424, 6-chloro-N-(4-{[4-(cyclobutylamino)cyclohexyl]methyl}cyclohexyl)-4-(5-methoxy-1H-pyrrolo[2,3-b]pyridin-3-yl)pyridin-2-amine]	< 10 nM
CCC(CC)NC1CCC(CC2CCC(Nc3cc(-c4c[nH]c5ncc(OC)cc45)cc(Cl)n3)CC2)CC1 (centres unmarked) [Example 425, 6-chloro-4-(5-methoxy-1H-pyrrolo[2,3-b]pyridin-3-yl)-N-(4-{[4-(pentan-3-ylamino)cyclohexyl]methyl}cyclohexyl)pyridin-2-amine]	< 10 nM
COc1cnc2[nH]cc(-c3cc(Cl)nc(NC4CCC(CC5CCC(NCC6CCCC6)CC5)CC4)c3)c2c1 (centres unmarked) [Example 426, 6-chloro-N-[4-({4-[(cyclopentylmethyl)amino]cyclohexyl}methyl)cyclohexyl]-4-(5-methoxy-1H-pyrrolo[2,3-b]pyridin-3-yl)pyridin-2-amine]	< 10 nM
N[C@H]1CC[C@H](Nc2cc(-c3c[nH]c4ncc(OCCc5ccccn5)cc34)cc(Cl)n2)CC1 [Example 427, trans-N-(6-chloro-4-{5-[2-(pyridin-2-yl)ethoxy]-1H-pyrrolo[2,3-b]pyridin-3-yl}pyridin-2-yl)cyclohexane-1,4-diamine]	< 10 nM
CC(C)COc1cnc2[nH]cc(-c3cc(Cl)nc(N[C@H]4CC[C@H](N)CC4)c3)c2c1 [Example 428, trans-N-{6-chloro-4-[5-(2-methylpropoxy)-1H-pyrrolo[2,3-b]pyridin-3-yl]pyridin-2-yl}cyclohexane-1,4-diamine]	< 10 nM
O=C(N[C@H]1CC[C@H](Nc2cc(-c3c[nH]c4ncccc34)cc(Cl)n2)CC1)C1CN(Cc2ccccn2)C1 [Example 429, N-(trans-4-{[6-chloro-4-(1H-pyrrolo[2,3-b]pyridin-3-yl)pyridin-2-yl]amino}cyclohexyl)-1-(pyridin-2-ylmethyl)azetidine-3-carboxamide]	< 10 nM

The next lines start with the values.

Ki	Compound
< 10 nM	COc1ccc(CNc2cc(-c3c[nH]c4ncccc34)cc(Cl)n2)cc1 [Example 397, 6-chloro-N-(4-methoxybenzyl)-4-(1H-pyrrolo[2,3-b]pyridin-3-yl)pyridin-2-amine]
< 10 nM	Oc1ccc(CCNc2cc(-c3c[nH]c4ncccc34)cc(Cl)n2)cc1 [Example 398, 4-(2-{[6-chloro-4-(1H-pyrrolo[2,3-b]pyridin-3-yl)pyridin-2-yl]amino}ethyl)phenol]
< 10 nM	Clc1cc(-c2c[nH]c3ncccc23)cc(NCCc2ccc3c(c2)OCO3)n1 [Example 399, N-[2-(1,3-benzodioxol-5-yl)ethyl]-6-chloro-4-(1H-pyrrolo[2,3-b]pyridin-3-yl)pyridin-2-amine]
< 10 nM	Clc1cc(-c2c[nH]c3ncccc23)cc(NCc2ccc3c(c2)OCO3)n1 [Example 400, N-(1,3-benzodioxol-5-ylmethyl)-6-chloro-4-(1H-pyrrolo[2,3-b]pyridin-3-yl)pyridin-2-amine]
< 10 nM	COc1ccc(CCNc2cc(-c3c[nH]c4ncccc34)cc(Cl)n2)cc1 [Example 401, 6-chloro-N-[2-(4-methoxyphenyl)ethyl]-4-(1H-pyrrolo[2,3-b]pyridin-3-yl)pyridin-2-amine]
< 10 nM	Clc1cc(-c2c[nH]c3ncccc23)cc(NC2CCN(Cc3ccccc3)CC2)n1 [Example 402, N-(1-benzylpiperidin-4-yl)-6-chloro-4-(1H-pyrrolo[2,3-b]pyridin-3-yl)pyridin-2-amine]
< 10 nM	Clc1cc(-c2c[nH]c3ncccc23)cc(NCCc2ccncc2)n1 [Example 403, 6-chloro-N-[2-(pyridin-4-yl)ethyl]-4-(1H-pyrrolo[2,3-b]pyridin-3-yl)pyridin-2-amine]
< 10 nM	Clc1cc(-c2c[nH]c3ncccc23)cc(NC2Cc3ccccc3C2)n1 [Example 404, 6-chloro-N-(2,3-dihydro-1H-inden-2-yl)-4-(1H-pyrrolo[2,3-b]pyridin-3-yl)pyridin-2-amine]
< 10 nM	Clc1cc(-c2c[nH]c3ncccc23)cc(NCCc2c[nH]c3ccccc23)n1 [Example 405, 6-chloro-N-[2-(1H-indol-3-yl)ethyl]-4-(1H-pyrrolo[2,3-b]pyridin-3-yl)pyridin-2-amine]
< 10 nM	Clc1cc(-c2c[nH]c3ncccc23)cc(Nc2ccc(OCc3ccccc3)cc2)n1 [Example 408, N-[4-(benzyloxy)phenyl]-6-chloro-4-(1H-pyrrolo[2,3-b]pyridin-3-yl)pyridin-2-amine]
< 10 nM	Clc1cc(-c2c[nH]c3ncccc23)cc(NCc2nc3ccccc3[nH]2)n1 [Example 409, N-(1H-benzimidazol-2-ylmethyl)-6-chloro-4-(1H-pyrrolo[2,3-b]pyridin-3-yl)pyridin-2-amine]
< 10 nM	Clc1cc(-c2c[nH]c3ncccc23)cc(NCc2ccc3[nH]ccc3c2)n1 [Example 410, 6-chloro-N-(1H-indol-5-ylmethyl)-4-(1H-pyrrolo[2,3-b]pyridin-3-yl)pyridin-2-amine]
< 10 nM	COc1ccc(Nc2cc(-c3c[nH]c4ncccc34)cc(Cl)n2)cc1 [Example 411, 6-chloro-N-(4-methoxyphenyl)-4-(1H-pyrrolo[2,3-b]pyridin-3-yl)pyridin-2-amine]
< 10 nM	OC(CNc1cc(-c2c[nH]c3ncccc23)cc(Cl)n1)c1ccccc1 (centres unmarked) [Example 415, 2-{[6-chloro-4-(1H-pyrrolo[2,3-b]pyridin-3-yl)pyridin-2-yl]amino}-1-phenylethanol]
< 10 nM	Clc1cc(-c2c[nH]c3ncccc23)cc(NCCCc2ccccc2)n1 [Example 416, 6-chloro-N-(3-phenylpropyl)-4-(1H-pyrrolo[2,3-b]pyridin-3-yl)pyridin-2-amine]
< 10 nM	CS(=O)(=O)c1ccc(CNc2cc(-c3c[nH]c4ncccc34)cc(Cl)n2)cc1 [Example 417, 6-chloro-N-[4-(methylsulfonyl)benzyl]-4-(1H-pyrrolo[2,3-b]pyridin-3-yl)pyridin-2-amine]
< 10 nM	CSc1ccc(Nc2cc(-c3c[nH]c4ncccc34)cc(Cl)n2)cc1 [Example 418, 6-chloro-N-[4-(methylsulfanyl)phenyl]-4-(1H-pyrrolo[2,3-b]pyridin-3-yl)pyridin-2-amine]
< 10 nM	Clc1cc(-c2c[nH]c3ncccc23)cc(Nc2ccc(Oc3ccccc3)cc2)n1 [Example 419, 6-chloro-N-(4-phenoxyphenyl)-4-(1H-pyrrolo[2,3-b]pyridin-3-yl)pyridin-2-amine]
